Several values for one entry are separate records, joined by “and”; a condition that tells them apart may be missing. Equal values may be shown once.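 96-well plates; 48 h exposure; 5 concentrations. Endpoints by linear interpolation between flanking doses. Not reached: highest tested concentration assigned. GI50: concentration for 50% inhibition of growth. The concentration for full growth arrest is given as TGI.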
Assays:
Test in all cases: NCI tumour cell line growth inhibition, 48 h
786-0 renal = test system: 786-0 renal
A549 NSCLC = test system: A549 NSCLC
ACHN renal = test system: ACHN renal
HOP-92 NSCLC = test system: HOP-92 NSCLC
KM12 colon = test system: KM12 colon
M14 melanoma = test system: M14 melanoma
MOLT-4 leukemia = test system: MOLT-4 leukemia
OVCAR-4 ovarian = test system: OVCAR-4 ovarian
SR leukemia = test system: SR leukemia

| SMILES | TGI (786-0 renal) | TGI (A549 NSCLC) | TGI (ACHN renal) | TGI (HOP-92 NSCLC) | TGI (KM12 colon) | TGI (M14 melanoma) | TGI (MOLT-4 leukemia) | TGI (OVCAR-4 ovarian) | TGI (SR leukemia) | GI50 (A549 NSCLC) | GI50 (ACHN renal) | GI50 (HOP-92 NSCLC) | GI50 (KM12 colon) | GI50 (M14 melanoma) | GI50 (MOLT-4 leukemia) | GI50 (SR leukemia) |
| --- | --- | --- | --- | --- | --- | --- | --- | --- | --- | --- | --- | --- | --- | --- | --- | --- |
| CC(=O)c1ccc2c(c1)CC1(C2)Cc2ccccc2C1=O (stereo unspecified) | > 100 µM | > 100 µM | > 100 µM | 95.9 µM | > 100 µM | > 100 µM | > 100 µM | > 100 µM | > 100 µM | – | – | – | – | – | – | – |
| CC(C)OC(=O)OCSc1ccccc1N=Cc1cccc([N+](=O)[O-])c1 | > 10 µM | > 10 µM | > 10 µM | > 10 µM | > 10 µM | > 10 µM | > 10 µM | > 10 µM | > 10 µM | – | – | – | – | – | – | – |
| N#Cc1c(-c2ccccc2)cc(-c2ccc(Cl)cc2)[nH]c1=S | > 100 µM | > 100 µM | > 100 µM | > 100 µM | > 100 µM | > 100 µM | > 100 µM | > 100 µM | > 100 µM | – | – | – | – | – | – | – |
| CCOC(=O)c1cn2c(n1)sc1cc(Cl)cc(Cl)c12 | > 100 µM | > 100 µM | > 100 µM | > 100 µM | > 100 µM | > 100 µM | > 100 µM | > 100 µM | > 100 µM | – | – | – | – | – | – | – |
| C=C(CN(C)C)C(=O)c1ccccc1[N+](=O)[O-] | 27 µM | > 70.5 µM and 41.1 µM | 29.5 µM and 14.8 µM | 18.5 µM and 5.11 µM | 46.1 µM and 37.5 µM | 29.6 µM | 26.7 µM and 5.83 µM | 41.1 µM | > 33.3 µM and 5.74 µM | 22.2 µM | 3.79 µM | 2110 nM | 15.6 µM | 6.42 µM | 4010 nM and 606 nM | 1650 nM |
| O=C(Nc1noc(-c2ccccc2)n1)c1ccccc1CNc1noc(-c2ccccc2)n1 | > 100 µM | > 100 µM | > 100 µM | > 100 µM | > 100 µM | > 100 µM | > 100 µM | > 100 µM | > 100 µM | – | – | – | – | – | – | – |
| COCCOCCOC1=CC(=O)c2c(O)ccc(O)c2C1=O | 3.2 µM | 3.38 µM | 2.99 µM | 3.71 µM | 3.3 µM | 2.14 µM | 5.56 µM | 3.13 µM | 5.03 µM | – | – | – | – | – | – | – |
| S=c1cc(-c2ccc3c(c2)OCO3)s[nH]1 | > 100 µM | > 100 µM | > 100 µM | > 100 µM | > 100 µM | > 100 µM | > 100 µM | > 100 µM | > 100 µM | – | – | – | – | – | – | – |
| CCOC(=O)/C=C(\C(=O)OCC)n1ccc(=O)n(Cc2cn(COCCOC(C)=O)nn2)c1=O | 32.9 µM | > 100 µM | 17.3 µM | 35.3 µM | > 54.6 µM | > 100 µM | 39.3 µM | 38.3 µM | 52.9 µM | – | – | – | – | – | – | – |
| COC(=O)[C@H](Cc1ccccc1)NC(=O)CCCCCCC(=O)NO | > 100 µM | > 100 µM | > 100 µM | 71.9 µM | > 100 µM | > 100 µM | > 100 µM | > 100 µM | > 100 µM | – | – | – | – | – | – | – |
| COc1ccc(-c2cc(-c3ccccc3)[nH]c(=S)c2C#N)cc1 | 86.3 µM | 37.9 µM | > 100 µM | 98.3 µM | > 100 µM | 94 µM | > 100 µM | > 100 µM | > 100 µM | – | – | – | – | – | – | – |
| NC(=O)N/N=C1\CC2C3CC4C2C4C13 (stereo unspecified) | > 100 µM | > 100 µM | > 100 µM | > 100 µM | > 100 µM | > 100 µM | > 100 µM | > 100 µM | > 100 µM | – | – | – | – | – | – | – |
| O=c1[nH]nc(Cc2ccccc2)n1/N=C/c1ccncc1 | > 100 µM | > 100 µM | > 100 µM | > 100 µM | > 100 µM | > 100 µM | > 100 µM | > 100 µM | > 100 µM | – | – | – | – | – | – | – |
| COc1cc(/C=C/C=C2\CC/C(=C\C=C\c3ccc(O)c(OC)c3)C2=O)ccc1O | > 100 µM | > 100 µM | > 100 µM | > 100 µM | > 100 µM | > 100 µM | 22.2 µM | > 100 µM | 17.9 µM | – | – | – | – | – | – | – |
| COc1ccc(NC(=S)NC(=O)c2ccc3c(c2)Sc2ccccc2O3)c([N+](=O)[O-])c1 | 56.5 µM | > 100 µM | 64.8 µM | 44.9 µM | > 100 µM | > 100 µM | > 100 µM | 91 µM | > 100 µM | – | – | – | – | – | – | – |
| O=[N+]([O-])c1ccc2c(c1)C1=NN(c3ccccc3)C(c3ccccc3Br)C1CCC2 (stereo unspecified) | > 50 µM | > 50 µM | > 50 µM | 48.1 µM | > 50 µM | > 50 µM | > 50 µM | > 50 µM | > 50 µM | – | – | – | – | – | – | – |
